Experimental data reported in patent publication US6737383B1, “Herbicidal oxadiazolidines” (priority 1999, dated 2004).

Tests used:
[1] = test system: surinam grass; assay: Test B pre/postemergence surinam grass; format: in vivo, Brachiaria decumbens
In short: (§1)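 Herbicidal effect was estimated by eye on a ten-point control scale after plants spent twelve to sixteen days in a greenhouse following soil or foliar treatment. Foliar sprays targeted plants at one to four leaves; all doses were formulated in a non-phytotoxic solvent with surfactant.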

[2] = test system: pigweed; assay: Test B pre/postemergence pigweed; format: in vivo, Amaranthus retroflexus
In short: as §1

[3] = test system: velvetleaf; assay: Test B pre/postemergence velvetleaf; format: in vivo, Abutilon theophrasti
In short: as §1

[4] = test system: rice; assay: Test B flood test rice; format: in vivo, Oryza sativa
In short: (§2)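 Each value is a visual injury score relative to controls, with 10 meaning complete control and 0 no effect. Evaluation took place twelve to sixteen days after the 2-leaf-stage plants were treated and kept in the greenhouse.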

[5] = test system: morningglory; assay: Test B pre/postemergence morningglory; format: in vivo, Ipomoea hederacea
In short: as §1

[6] = test system: giant foxtail; assay: Test B pre/postemergence giant foxtail; format: in vivo, Setaria faberii
In short: as §1

[7] = test system: soybean; assay: Test B pre/postemergence soybean; format: in vivo, Glycine max
In short: as §1

[8] = test system: bedstraw; assay: Test B pre/postemergence bedstraw; format: in vivo, Galium aparine
In short: as §1

[9] = test system: crabgrass; assay: Test B pre/postemergence crabgrass; format: in vivo, Digitaria sanguinalis
In short: as §1

[10] = test system: purple nutsedge; assay: Test B pre/postemergence purple nutsedge; format: in vivo, Cyperus rotundus
In short: as §1

[11] = test system: wheat; assay: Test B pre/postemergence wheat; format: in vivo, Triticum aestivum
In short: as §1

[12] = test system: corn; assay: Test B pre/postemergence corn; format: in vivo, Zea mays
In short: as §1

[13] = test system: duck salad; assay: Test B flood test duck salad; format: in vivo, Heteranthera limosa
In short: as §2

[14] = test system: rape; assay: Test B pre/postemergence rape; format: in vivo, Brassica napus
In short: as §1

[15] = test system: wild oat; assay: Test B pre/postemergence wild oat; format: in vivo, Avena fatua
In short: as §1

[16] = test system: blackgrass; assay: Test B pre/postemergence blackgrass; format: in vivo, Alopecurus myosuroides
In short: as §1

[17] = Postemergence, Rate 62 g/ha, scale 0 to 10, 0 is no effect, 10 is complete control
[18] = Postemergence, Rate 250 g/ha, scale 0 to 10, 0 no effect, 10 complete control
[19] = Preemergence, Rate 62 g/ha, scale 0 to 10 (0 no effect, 10 complete control)
[20] = Preemergence, Rate 125 g/ha, scale 0 to 10 (0 no effect, 10 complete control)
[21] = Preemergence, Rate 250 g/ha, scale of 0 to 10 where 0 is no effect and 10 is complete control
[22] = Preemergence, Rate 500 g/ha, scale 0 (no effect) to 10 (complete control)
[23] = Rate 125 g/ha, Postemergence, scale 0 to 10, 0 no effect, 10 complete control
[24] = Rate 500 g/ha, Postemergence, scale 0 to 10, 0 no effect, 10 complete control
[25] = Rate 125 g/ha, Postemergence section (flood test species), scale 0 to 10, 0 no effect, 10 complete control
[26] = Rate 500 g/ha, listed under Postemergence (flood test species), scale 0 to 10, 0 no effect, 10 complete control
[27] = flood test, listed under Postemergence, Rate 250 g/ha, scale 0 to 10, 0 no effect, 10 complete control

Question: With `Cc1cccc(C(C)C)c1-n1c(=O)on(C(=O)N(c2ccc(F)cc2)C(C)C)c1=O` [Compound 65] as the molecule, how does the “B. signalgrass plant response rating” value [1, 17] read?
Answer: 0

Question: And the “B. signalgrass plant response rating” value [1, 18]?
Answer: 0

Question: And the “B. signalgrass plant response rating” value [1, 19]?
Answer: 0

Question: What about the “Plant response rating, B. signalgrass” value [1, 20] of the same molecule?
Answer: 0

Question: And the “Plant response rating, B. signalgrass” value [1, 21]?
Answer: 0

Question: What about the “B. signalgrass plant response rating” value [1, 22] of the same molecule?
Answer: 0

Question: What about the “B. signalgrass plant response rating” value [1, 23] of the same molecule?
Answer: 0

Question: What about the “B. signalgrass plant response rating” value ([1]; Rate 500 g/ha, Postemergence, scale of 0 to 10 where 0 is no effect and 10 is complete control) of the same molecule?
Answer: 0

Question: And the “Redroot pigweed plant response rating” value [2, 17]?
Answer: 0

Question: What about the “Redroot pigweed plant response rating” value [2, 18] of the same molecule?
Answer: 0

Question: What about the “Redroot pigweed plant response rating” value [2, 19] of the same molecule?
Answer: 0

Question: And the “Plant response rating, Redroot pigweed” value [2, 20]?
Answer: 0

Question: What about the “Plant response rating, Redroot pigweed” value [2, 21] of the same molecule?
Answer: 0

Question: What about the “Redroot pigweed plant response rating” value [2, 22] of the same molecule?
Answer: 3

Question: What about the “Redroot pigweed plant response rating” value [2, 23] of the same molecule?
Answer: 0

Question: What about the “Redroot pigweed plant response rating” value [2, 24] of the same molecule?
Answer: 0

Question: What about the “Velvetleaf plant response rating” value [3, 17] of the same molecule?
Answer: 3

Question: And the “Velvetleaf plant response rating” value [3, 18]?
Answer: 3

Question: What about the “Velvetleaf plant response rating” value [3, 19] of the same molecule?
Answer: 0

Question: What about the “Plant response rating, Velvetleaf” value [3, 20] of the same molecule?
Answer: 0

Question: What about the “Plant response rating, Velvetleaf” value [3, 21] of the same molecule?
Answer: 0

Question: And the “Velvetleaf plant response rating” value [3, 22]?
Answer: 0

Question: What about the “Velvetleaf plant response rating” value [3, 23] of the same molecule?
Answer: 3

Question: What about the “Velvetleaf plant response rating” value [3, 24] of the same molecule?
Answer: 4

Question: What about the “Rice plant response rating” value [4, 17] of the same molecule?
Answer: 0

Question: And the “Rice plant response rating” value [4, 25]?
Answer: 0

Question: What about the “Rice plant response rating” value [4, 26] of the same molecule?
Answer: 3

Question: What about the “Rice plant response rating” value [4, 27] of the same molecule?
Answer: 0

Question: What about the “Morningglory plant response rating” value [5, 17] of the same molecule?
Answer: 0

Question: And the “Morningglory plant response rating” value [5, 18]?
Answer: 1

Question: What about the “Morningglory plant response rating” value [5, 19] of the same molecule?
Answer: 0

Question: What about the “Plant response rating, Morningglory” value [5, 20] of the same molecule?
Answer: 0

Question: What about the “Plant response rating, Morningglory” value [5, 21] of the same molecule?
Answer: 0

Question: What about the “Morningglory plant response rating” value [5, 22] of the same molecule?
Answer: 0

Question: And the “Morningglory plant response rating” value [5, 23]?
Answer: 1

Question: What about the “Morningglory plant response rating” value [5, 24] of the same molecule?
Answer: 2

Question: What about the “Giant foxtail plant response rating” value [6, 17] of the same molecule?
Answer: 0

Question: And the “Giant foxtail plant response rating” value [6, 18]?
Answer: 0

Question: What about the “Giant foxtail plant response rating” value [6, 19] of the same molecule?
Answer: 3

Question: And the “Plant response rating, Giant foxtail” value [6, 20]?
Answer: 4

Question: What about the “Plant response rating, Giant foxtail” value [6, 21] of the same molecule?
Answer: 4

Question: And the “Giant foxtail plant response rating” value [6, 22]?
Answer: 9

Question: And the “Giant foxtail plant response rating” value [6, 23]?
Answer: 0

Question: And the “Giant foxtail plant response rating” value [6, 24]?
Answer: 0

Question: And the “Soybean plant response rating” value [7, 17]?
Answer: 1

Question: And the “Soybean plant response rating” value [7, 18]?
Answer: 1

Question: And the “Soybean plant response rating” value [7, 19]?
Answer: 0

Question: What about the “Plant response rating, Soybean” value [7, 20] of the same molecule?
Answer: 0

Question: What about the “Plant response rating, Soybean” value [7, 21] of the same molecule?
Answer: 0

Question: And the “Soybean plant response rating” value [7, 22]?
Answer: 0

Question: What about the “Soybean plant response rating” value [7, 23] of the same molecule?
Answer: 1

Question: What about the “Soybean plant response rating” value [7, 24] of the same molecule?
Answer: 1

Question: And the “Bedstraw plant response rating” value [8, 17]?
Answer: 0

Question: And the “Bedstraw plant response rating” value [8, 18]?
Answer: 0

Question: What about the “Bedstraw plant response rating” value [8, 19] of the same molecule?
Answer: 0

Question: What about the “Plant response rating, Bedstraw” value [8, 20] of the same molecule?
Answer: 0

Question: What about the “Plant response rating, Bedstraw” value [8, 21] of the same molecule?
Answer: 2

Question: And the “Bedstraw plant response rating” value [8, 22]?
Answer: 3

Question: What about the “Bedstraw plant response rating” value [8, 23] of the same molecule?
Answer: 0

Question: What about the “Bedstraw plant response rating” value [8, 24] of the same molecule?
Answer: 0

Question: What about the “Crabgrass plant response rating” value [9, 17] of the same molecule?
Answer: 0

Question: What about the “Crabgrass plant response rating” value [9, 18] of the same molecule?
Answer: 0

Question: What about the “Crabgrass plant response rating” value [9, 19] of the same molecule?
Answer: 0

Question: And the “Plant response rating, Crabgrass” value [9, 20]?
Answer: 2

Question: And the “Plant response rating, Crabgrass” value [9, 21]?
Answer: 4

Question: And the “Crabgrass plant response rating” value [9, 22]?
Answer: 9

Question: What about the “Crabgrass plant response rating” value [9, 23] of the same molecule?
Answer: 0

Question: And the “Crabgrass plant response rating” value [9, 24]?
Answer: 0

Question: And the “Nutsedge plant response rating” value [10, 17]?
Answer: 0

Question: What about the “Nutsedge plant response rating” value [10, 18] of the same molecule?
Answer: 0

Question: And the “Nutsedge plant response rating” value [10, 19]?
Answer: 0

Question: And the “Plant response rating, Nutsedge” value [10, 20]?
Answer: 0

Question: What about the “Plant response rating, Nutsedge” value [10, 21] of the same molecule?
Answer: 2

Question: What about the “Nutsedge plant response rating” value [10, 22] of the same molecule?
Answer: 3

Question: What about the “Nutsedge plant response rating” value [10, 23] of the same molecule?
Answer: 0

Question: What about the “Nutsedge plant response rating” value [10, 24] of the same molecule?
Answer: 0

Question: What about the “Wheat plant response rating” value [11, 17] of the same molecule?
Answer: 0

Question: What about the “Wheat plant response rating” value [11, 18] of the same molecule?
Answer: 0

Question: And the “Wheat plant response rating” value [11, 19]?
Answer: 0

Question: And the “Plant response rating, Wheat” value [11, 20]?
Answer: 0

Question: And the “Plant response rating, Wheat” value [11, 21]?
Answer: 0

Question: What about the “Wheat plant response rating” value [11, 22] of the same molecule?
Answer: 0

Question: And the “Wheat plant response rating” value [11, 23]?
Answer: 0

Question: What about the “Wheat plant response rating” value [11, 24] of the same molecule?
Answer: 0

Question: And the “Corn plant response rating” value [12, 17]?
Answer: 0

Question: And the “Corn plant response rating” value [12, 18]?
Answer: 0

Question: And the “Corn plant response rating” value [12, 19]?
Answer: 0

Question: What about the “Plant response rating, Corn” value [12, 20] of the same molecule?
Answer: 0

Question: And the “Plant response rating, Corn” value [12, 21]?
Answer: 0

Question: And the “Corn plant response rating” value [12, 22]?
Answer: 0

Question: And the “Corn plant response rating” value [12, 23]?
Answer: 0

Question: What about the “Corn plant response rating” value [12, 24] of the same molecule?
Answer: 0

Question: What about the “Ducksalad plant response rating” value [13, 17] of the same molecule?
Answer: 0

Question: What about the “Ducksalad plant response rating” value [13, 25] of the same molecule?
Answer: 0

Question: What about the “Ducksalad plant response rating” value [13, 26] of the same molecule?
Answer: 0

Question: And the “Ducksalad plant response rating” value [13, 27]?
Answer: 0

Question: And the “Rape plant response rating” value [14, 17]?
Answer: 0

Question: And the “Rape plant response rating” value [14, 18]?
Answer: 0

Question: And the “Rape plant response rating” value [14, 19]?
Answer: 0

Question: What about the “Plant response rating, Rape” value [14, 20] of the same molecule?
Answer: 0

Question: What about the “Plant response rating, Rape” value [14, 21] of the same molecule?
Answer: 0

Question: What about the “Rape plant response rating” value [14, 22] of the same molecule?
Answer: 3

Question: And the “Rape plant response rating” value [14, 23]?
Answer: 0

Question: What about the “Rape plant response rating” value [14, 24] of the same molecule?
Answer: 0

Question: What about the “Wild oats plant response rating” value [15, 17] of the same molecule?
Answer: 0

Question: And the “Wild oats plant response rating” value [15, 18]?
Answer: 0

Question: And the “Wild oats plant response rating” value [15, 19]?
Answer: 0

Question: What about the “Plant response rating, Wild oats” value [15, 20] of the same molecule?
Answer: 0

Question: What about the “Plant response rating, Wild oats” value [15, 21] of the same molecule?
Answer: 0

Question: And the “Wild oats plant response rating” value [15, 22]?
Answer: 0

Question: What about the “Wild oats plant response rating” value [15, 23] of the same molecule?
Answer: 0

Question: What about the “Wild oats plant response rating” value [15, 24] of the same molecule?
Answer: 0

Question: What about the “Blackgrass plant response rating” value [16, 17] of the same molecule?
Answer: 0

Question: And the “Blackgrass plant response rating” value [16, 18]?
Answer: 0

Question: And the “Blackgrass plant response rating” value [16, 19]?
Answer: 0

Question: And the “Plant response rating, Blackgrass” value [16, 20]?
Answer: 0

Question: What about the “Plant response rating, Blackgrass” value [16, 21] of the same molecule?
Answer: 0

Question: What about the “Blackgrass plant response rating” value [16, 22] of the same molecule?
Answer: 0

Question: And the “Blackgrass plant response rating” value [16, 23]?
Answer: 0

Question: What about the “Blackgrass plant response rating” value [16, 24] of the same molecule?
Answer: 0
